{
  "source": "patent US10681909B2",
  "about": "“Herbicidal triazoles” (FMC Corporation, priority 2014, dated 2020)",
  "key": {"barnyardgrass [1]": {"system": "barnyardgrass", "assay": "Test A preemergence", "type": "in vivo, Echinochloa crus-galli", "conditions": "Echinochloa crus-galli, pre-emergence, 240 h, 0 to 100 scale (0 no effect, 100 complete control), read-out: Plant response rating, Barnyardgrass; for pest or weed control at 125 g/ha: 125 g ai/ha; for pest or weed control at 500 g/ha: 500 g ai/ha, approx. 10 d", "in_short": "(§1)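 Test chemicals in a non-phytotoxic solvent with surfactant were applied as a directed soil spray preemergence to seeds sown in loam/sand. Postemergence sprays went to plants 2–10 cm tall at the one- to two-leaf stage. A dash means no result.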"}, "foxtail, giant": {"system": "foxtail, giant", "assay": "Test A preemergence", "type": "in vivo, Setaria faberii", "conditions": "Setaria faberi, pre-emergence, 240 h, 0 to 100 scale (0 no effect, 100 complete control), read-out: Plant response rating, Foxtail, Giant; for pest or weed control at 125 g/ha: 125 g ai/ha; for pest or weed control at 500 g/ha: 500 g ai/ha, approx. 10 d", "in_short": "as §1"}, "barnyardgrass [2]": {"system": "barnyardgrass", "assay": "Test A postemergence", "type": "in vivo, Echinochloa crus-galli", "conditions": "Echinochloa crus-galli, post-emergence, 240 h, 0 to 100 scale (0 no effect, 100 complete control), approx. 10 d, read-out: Plant response rating, Barnyardgrass; for pest or weed control at 125 g/ha: 125 g ai/ha; for pest or weed control at 500 g/ha: 500 g ai/ha", "in_short": "as §1"}, "corn": {"system": "corn", "assay": "Test A postemergence", "type": "in vivo, Zea mays", "conditions": "Zea mays, post-emergence, 240 h, 0 to 100 scale (0 no effect, 100 complete control), approx. 10 d; for Corn plant response rating (crop injury, 0 = no effect, 100 = complete kill) at 125 g/ha: 125 g ai/ha; for Corn plant response rating (crop injury, 0 = no effect, 100 = complete kill) at 500 g/ha: 500 g ai/ha", "in_short": "as §1"}, "rice": {"system": "rice", "assay": "Test B flooded paddy test", "type": "in vivo, Oryza sativa", "conditions": "Oryza sativa, 360 h, 125 g ai/ha, applied to paddy water at 2-leaf stage, visual rating after 13 to 15 d, scale 0 (no effect) to 100 (complete control), read-out: Plant response rating, Rice, Flood", "in_short": "(§2)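 Pots were flooded to 3 cm above the soil at treatment, and compounds were applied directly into the paddy water. That depth was held throughout. After 13 to 15 d in a greenhouse, plants were rated visually against untreated controls.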"}, "ducksalad": {"system": "ducksalad", "assay": "Test B flooded paddy test", "type": "in vivo, Heteranthera limosa", "conditions": "Heteranthera limosa, 360 h, 125 g ai/ha, applied to paddy water at 2-leaf stage, visual rating after 13 to 15 d, scale 0 (no effect) to 100 (complete control), read-out: Plant response rating, Ducksalad, Flood", "in_short": "as §2"}},
  "data": [
    {"smiles": "CCn1nc(-c2ccc(F)cc2)nc1C(=O)c1ccnc(C(F)(F)F)c1", "note": "[Compound 19, [1-ethyl-3-(4-fluorophenyl)-1H-1,2,4-triazol-5-yl][2-(trifluoromethyl)-4-pyridinyl]methanone]", "values": [
      {"measurement": "pest or weed control at 125 g/ha", "setting": "barnyardgrass [1]", "value": 0, "unit": "%"},
      {"measurement": "pest or weed control at 500 g/ha", "setting": "barnyardgrass [1]", "value": 0, "unit": "%"},
      {"measurement": "pest or weed control at 125 g/ha", "setting": "foxtail, giant", "value": 0, "unit": "%"},
      {"measurement": "pest or weed control at 500 g/ha", "setting": "foxtail, giant", "value": 50, "unit": "%"},
      {"measurement": "pest or weed control at 125 g/ha", "setting": "barnyardgrass [2]", "value": 0, "unit": "%"},
      {"measurement": "pest or weed control at 500 g/ha", "setting": "barnyardgrass [2]", "value": 0, "unit": "%"},
      {"measurement": "Corn plant response rating (crop injury, 0 = no effect, 100 = complete kill) at 125 g/ha", "setting": "corn", "value": 0, "unit": "%"},
      {"measurement": "Corn plant response rating (crop injury, 0 = no effect, 100 = complete kill) at 500 g/ha", "setting": "corn", "value": 20, "unit": "%"},
      {"measurement": "plant injury at 125 g/ha", "setting": "rice", "value": 0, "unit": "%"},
      {"measurement": "pest or weed control at 125 g/ha", "setting": "ducksalad", "value": 0, "unit": "%"}
    ]},
    {"smiles": "CCCn1nc(-c2ccc(F)cc2)nc1Cc1ccnc(C(F)(F)F)c1", "note": "[Compound 17, 4-[[3-(4-fluorophenyl)-1-propyl-1H-1,2,4-triazol-5-yl]methyl]-2-(trifluoromethyl)pyridine]", "values": [
      {"measurement": "pest or weed control at 125 g/ha", "setting": "barnyardgrass [1]", "value": 50, "unit": "%"},
      {"measurement": "pest or weed control at 500 g/ha", "setting": "barnyardgrass [1]", "value": 100, "unit": "%"},
      {"measurement": "pest or weed control at 125 g/ha", "setting": "foxtail, giant", "value": 100, "unit": "%"},
      {"measurement": "pest or weed control at 500 g/ha", "setting": "foxtail, giant", "value": 100, "unit": "%"},
      {"measurement": "pest or weed control at 125 g/ha", "setting": "barnyardgrass [2]", "value": 70, "unit": "%"},
      {"measurement": "pest or weed control at 500 g/ha", "setting": "barnyardgrass [2]", "value": 90, "unit": "%"},
      {"measurement": "Corn plant response rating (crop injury, 0 = no effect, 100 = complete kill) at 125 g/ha", "setting": "corn", "value": 50, "unit": "%"},
      {"measurement": "Corn plant response rating (crop injury, 0 = no effect, 100 = complete kill) at 500 g/ha", "setting": "corn", "value": 70, "unit": "%"},
      {"measurement": "plant injury at 125 g/ha", "setting": "rice", "value": 15, "unit": "%"},
      {"measurement": "pest or weed control at 125 g/ha", "setting": "ducksalad", "value": 70, "unit": "%"}
    ]},
    {"smiles": "CCn1nc(-c2ccc(F)cc2)nc1C(O)c1ccnc(C(F)(F)F)c1", "note": "(stereo not drawn) [Compound 15, α-[1-Ethyl-3-(4-fluorophenyl)-1H-1,2,4-triazol-5-yl]-2-(trifluoromethyl)-4-pyridinemethanol]", "values": [
      {"measurement": "pest or weed control at 125 g/ha", "setting": "barnyardgrass [1]", "value": 0, "unit": "%"},
      {"measurement": "pest or weed control at 500 g/ha", "setting": "barnyardgrass [1]", "value": 0, "unit": "%"},
      {"measurement": "pest or weed control at 125 g/ha", "setting": "foxtail, giant", "value": 0, "unit": "%"},
      {"measurement": "pest or weed control at 500 g/ha", "setting": "foxtail, giant", "value": 20, "unit": "%"},
      {"measurement": "pest or weed control at 125 g/ha", "setting": "barnyardgrass [2]", "value": 0, "unit": "%"},
      {"measurement": "pest or weed control at 500 g/ha", "setting": "barnyardgrass [2]", "value": 10, "unit": "%"},
      {"measurement": "Corn plant response rating (crop injury, 0 = no effect, 100 = complete kill) at 125 g/ha", "setting": "corn", "value": 0, "unit": "%"},
      {"measurement": "Corn plant response rating (crop injury, 0 = no effect, 100 = complete kill) at 500 g/ha", "setting": "corn", "value": 10, "unit": "%"},
      {"measurement": "plant injury at 125 g/ha", "setting": "rice", "value": 0, "unit": "%"},
      {"measurement": "pest or weed control at 125 g/ha", "setting": "ducksalad", "value": 0, "unit": "%"}
    ]},
    {"smiles": "Cn1nc(-c2ccc(F)cc2)nc1C(O)c1ccnc(C(F)(F)F)c1", "note": "(stereo not drawn) [Compound 14, α-[3-(4-fluorophenyl)-1-methyl-1H-1,2,4-triazol-5-yl]-2-(trifluoromethyl)-4-pyridinemethanol]", "values": [
      {"measurement": "pest or weed control at 125 g/ha", "setting": "barnyardgrass [1]", "value": 0, "unit": "%"},
      {"measurement": "pest or weed control at 500 g/ha", "setting": "barnyardgrass [1]", "value": 10, "unit": "%"},
      {"measurement": "pest or weed control at 125 g/ha", "setting": "foxtail, giant", "value": 30, "unit": "%"},
      {"measurement": "pest or weed control at 500 g/ha", "setting": "foxtail, giant", "value": 90, "unit": "%"},
      {"measurement": "pest or weed control at 125 g/ha", "setting": "barnyardgrass [2]", "value": 10, "unit": "%"},
      {"measurement": "pest or weed control at 500 g/ha", "setting": "barnyardgrass [2]", "value": 20, "unit": "%"},
      {"measurement": "Corn plant response rating (crop injury, 0 = no effect, 100 = complete kill) at 125 g/ha", "setting": "corn", "value": 10, "unit": "%"},
      {"measurement": "Corn plant response rating (crop injury, 0 = no effect, 100 = complete kill) at 500 g/ha", "setting": "corn", "value": 20, "unit": "%"},
      {"measurement": "plant injury at 125 g/ha", "setting": "rice", "value": 0, "unit": "%"},
      {"measurement": "pest or weed control at 125 g/ha", "setting": "ducksalad", "value": 0, "unit": "%"}
    ]}
  ]
}
